Measured values published in ChEMBL document CHEMBL1142268, “Histone deacetylase inhibitors: from bench to clinic” (J Med Chem, 2008).

Tests used:
[1] = tested on: HCT-116; assay: Inhibition of human HCT116 cells; assay type: functional, cell-based
[2] = tested on: HT-1080; assay: Inhibition of human HT1080 cells; assay type: functional, cell-based
[3] = target: Histone deacetylase; assay: Inhibition of HDAC from human K562 cells; assay type: cell-based
[4] = tested on: MKN-45; assay: Antiproliferative activity against human MKN45 cells; assay type: functional, cell-based
[5] = target: Histone deacetylase; assay: Inhibition of HDAC in human CEM cells; assay type: cell-based; conditions: ccrf-cem
[6] = tested on: CCRF-CEM; assay: Inhibition of human CEM cells assessed as viability; assay type: functional, cell-based
[7] = target: Histone deacetylase; assay: Inhibition of human liver HDAC
[8] = tested on: MM96L; assay: Inhibition of human MM96L cells; assay type: functional, cell-based
[9] = Growth inhibition of human neonatal foreskin fibroblasts cells; assay type: functional, cell-based; conditions: Fibroblast
[10] = target: T1, Histone deacetylase 1 (Homo sapiens, UniProt Q13547)
T1 sequence (Q13547 whole entry): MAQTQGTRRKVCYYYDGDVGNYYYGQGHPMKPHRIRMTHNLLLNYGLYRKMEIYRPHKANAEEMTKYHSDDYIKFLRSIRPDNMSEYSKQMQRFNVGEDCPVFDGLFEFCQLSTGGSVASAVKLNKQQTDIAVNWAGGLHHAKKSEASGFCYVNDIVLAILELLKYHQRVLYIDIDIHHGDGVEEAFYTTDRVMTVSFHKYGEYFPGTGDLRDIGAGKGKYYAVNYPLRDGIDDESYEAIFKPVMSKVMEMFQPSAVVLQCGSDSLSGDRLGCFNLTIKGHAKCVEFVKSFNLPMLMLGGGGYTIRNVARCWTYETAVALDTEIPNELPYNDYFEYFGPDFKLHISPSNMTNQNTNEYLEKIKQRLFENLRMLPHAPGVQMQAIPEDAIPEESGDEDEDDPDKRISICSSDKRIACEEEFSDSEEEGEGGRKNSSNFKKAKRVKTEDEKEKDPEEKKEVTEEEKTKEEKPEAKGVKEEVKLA

[11] = target: T1, Histone deacetylase 1; assay: Inhibition of HDAC1 from human HeLa cells; assay type: cell-based
[12] = target: Histone deacetylase; assay: Inhibition of HDAC from human HeLa cells; assay type: cell-based
[13] = tested on: SQ20B; assay: Inhibition of human SQ20B cells; assay type: functional, cell-based
[14] = tested on: MCF7; assay: Inhibition of human MCF7 cells; assay type: functional, cell-based
[15] = target: T1, Histone deacetylase 1; remark: listed apart in the source
Description: Inhibition of human HDAC1

[16] = Inhibition of mouse SC9 cells; assay type: functional, cell-based
[17] = tested on: SK-BR-3; assay: Antiproliferative activity against human SKBR3 cells; assay type: functional, cell-based

In the case of `COc1cc(CNc2ccc(/C=C/C(=O)Nc3ccccc3N)cn2)cc(OC)c1OC`, the IC50 [1] is reported as 2000 nM.

`COc1cc(NCc2ccc(/C=C/C(=O)Nc3ccccc3N)cn2)cc(OC)c1OC` showed an IC50 [1] of 3000 nM.

Work on `O=C(CCCCCCc1ncc(-c2ccc(-c3ccc(Cl)cc3)cc2)o1)NO` yielded an IC50 [2] of 660 nM and an IC50 [3] of 6.8 nM.

`Cn1nc(C(F)(F)F)cc1-c1ccc(C(=O)NO)s1` gave an IC50 [4] of 31500 nM.

`O=C(CCCCCCc1cnc(-c2ccc(-c3ccccc3)cc2)o1)NO` gave an IC50 [2] of 15300 nM and an IC50 [3] of 12 nM.

`O=C(CCCCC[S+]([O-])c1ccccc1)NO` (stereo not given) gave an IC50 [5] of 7400 nM, an IC50 [6] of over 25000 nM and an IC50 [7] of 60 nM.

Work on `O=C(Cn1ccc(-c2ccc(C(=O)NO)s2)n1)Nc1cccc2cccnc12` yielded an IC50 [4] of 200 nM.

`O=C(CCCSC[C@H](NC(=O)c1ccc(-c2ccccc2)cc1)C(=O)NCc1ccccc1)NO` showed an IC50 [8] of 900 nM and an IC50 [9] of 2800 nM.

`O=C(CCCCCCc1cnc(-c2ccc(OC(F)(F)F)cc2)o1)NO` gave an IC50 [2] of 5140 nM and an IC50 [3] of 89 nM.

For `O=C(CCCCCSc1ccc(Cl)cc1)NO`, the IC50 [5] was over 25000 nM, the IC50 [6] was over 25000 nM and the IC50 [7] was 260 nM.

In the case of `O=C(Cc1ccc(-c2csc(NC(=O)Cc3ccccc3)n2)s1)NO`, the IC50 [10] is reported as over 100 nM.

With `CC(=O)CCCCC[C@H](NC(C)=O)C(=O)NCCc1c(-c2ccccc2)[nH]c2ccccc12` the IC50 [11] was 7600 nM.

`O=C(CCCSC[C@H](NC(=O)c1cc2ccccc2[nH]1)C(=O)NCc1ccccc1)NO` showed an IC50 [8] of 130 nM and an IC50 [9] of 800 nM.

`Nc1ccccc1NC(=O)CCCCCCNC(=O)c1cccc(-c2ccccc2)c1` showed an IC50 [1] of 12000 nM.

With `Nc1ccccc1NC(=O)c1ccc(/C=C/C(=O)NCc2cccnc2)cc1` the IC50 [1] was 70 nM.

With `COc1cccc(OC)c1-c1csc(CCCCCCC(=O)NO)n1` the IC50 [2] was 2000 nM and the IC50 [3] was 4.3 nM.

`O=C(CCCCCS(=O)(=O)c1ccccc1)NO` gave an IC50 ([5]; read-out: IC50) of 15500 nM, an IC50 [6] of over 25000 nM and an IC50 [7] of 40 nM.

With `CN(C)c1ccc(CNC(=O)NCCCCCCCC(=O)NO)cc1` the IC50 [12] was 700 nM and the IC50 [13] was 50000 nM.

With `Nc1ccccc1NC(=O)c1ccc(CSc2nc3ccccc3[nH]2)cc1` the IC50 [1] was 320 nM.

`O=C(NO)c1ccc(-c2ccn(CCc3ccccc3)n2)s1` gave an IC50 [4] of 2910 nM.

`COc1ccc(CNc2ccc(/C=C/C(=O)Nc3ccccc3N)cc2)cc1` gave an IC50 [1] of 37000 nM.

`Nc1ccccc1NC(=O)c1ccc(/C=C/C(=O)NCCc2c[nH]c3ccccc23)cc1` gave an IC50 [1] of 300 nM.

Compound `O=C(NO)c1cnc(N2CCC(NS(=O)(=O)c3ccc4ccccc4c3)CC2)s1` has a GI50 [14] of 700 nM.

Work on `O=C(CCCCCCc1nc(-c2cccc(Br)c2)cs1)NO` yielded an IC50 [2] of 10100 nM and an IC50 [3] of 5.8 nM.

Work on `O=C(Nc1ccc2cc(C(=O)NO)sc2c1)c1ccc2ccccc2c1` yielded an IC50 [15] of 79 nM.

Work on `Nc1ccccc1NC(=O)c1ccc(/C=C/CNc2nccc(-c3cccnc3)n2)cc1` yielded an IC50 [1] of 200 nM.

With `O=C(NO)c1cc2cc(NC(=O)c3cccc4ccccc34)ccc2s1` the IC50 [15] was 1070 nM.

Work on `CC(=O)CCCCC[C@H](NC(=O)c1cncs1)C(=O)NCCc1c(-c2ccccc2)[nH]c2ccccc12` yielded an IC50 [11] of 3000 nM.

For `COc1ccc(CCNc2ccc(C(=O)Nc3ccccc3N)cn2)cc1`, the IC50 [1] was 800 nM.

With `O=C(CCCCCCc1ncc(-c2ccccc2)o1)NO` the IC50 [2] was 8410 nM and the IC50 [3] was 9.8 nM.

Compound `O=C(CCCCCCc1nc(-c2ccc(Br)cc2)cs1)NO` has an IC50 [2] of 5680 nM and an IC50 [3] of 8.5 nM.

Work on `COc1ccc(CNCCn2ccc(-c3ccc(C(=O)NO)s3)n2)cc1` yielded an IC50 [4] of 550 nM.

With `CN(C)c1ccc([S+]([O-])CCCCCC(=O)NO)cc1` (stereo not given) the IC50 ([5]; read-out: IC50) was 2240 nM, the IC50 [6] was 3400 nM and the IC50 [7] was 180 nM.

For `CC(=O)CCCCC[C@H](NC(=O)c1cnns1)C(=O)NCCc1c(-c2ccccc2)[nH]c2ccccc12`, the IC50 [15] was 480 nM and the IC50 [11] was 3400 nM.

`O=C(NO)c1ccc(-c2ccn(CCNCc3ccc4[nH]ccc4c3)n2)s1` showed an IC50 [4] of 280 nM.

`CC(=O)CCCCC[C@H](NC(=O)C1CCN(C)C1)C(=O)NCCc1c(-c2ccccc2)[nH]c2ccccc12` (stereo not given in full) gave an IC50 [11] of 2000 nM.

Work on `O=C(CCCCCC(=O)N(CC(=O)Nc1nc2ccccc2s1)CC(=O)Nc1nc2ccccc2s1)NO` yielded an IC50 [16] of 50000 nM.

Work on `COc1ccc(-c2csc(CCCCCCC(=O)NO)n2)cc1` yielded an IC50 [2] of 3630 nM and an IC50 [3] of 2.5 nM.

For `COc1ccc(-c2ccnc(NCc3ccc(C(=O)Nc4ccccc4N)cc3)n2)cn1`, the IC50 [1] was 100 nM and the IC50 [10] was 600 nM.

Compound `O=C(CCCCCCc1nc(-c2ccc3ccccc3c2)cs1)NO` has an IC50 [2] of 2390 nM and an IC50 [3] of 4.3 nM.

Compound `O=C(CCCCCCc1nc(-c2ccccc2)cs1)NO` has an IC50 [2] of 5070 nM and an IC50 [3] of 19 nM.

With `O=C(CCCCCCC(=O)Nc1ccccc1)NO` [VORINOSTAT] the IC50 [17] was 800 nM.

With `CCNC(=O)C(=O)CCCCCCOc1ccc(-c2ccccc2)cc1` the IC50 [3] was 4900 nM.

Compound `O=C(CCCCCCc1cnc(-c2ccc(Br)cc2)o1)NO` has an IC50 [2] of 27000 nM and an IC50 [3] of 4.4 nM.

With `Nc1ccccc1NC(=O)c1ccc(Cn2c(=O)[nH]c3ccccc3c2=O)cc1` the IC50 [1] was 600 nM and the IC50 [10] was 2000 nM.
